Test: pKa determination
Format: physicochemical
Conditions: methanol / 1 N HCl solution

pKa: 8.22 ± 0.09
SMILES: O=C(CCCN1CCC(O)(c2ccc(Cl)cc2)CC1)c1ccc(F)cc1 [Haloperidol]
